Reference: ChEMBL document CHEMBL1148891, “New syntheses of tetrazolylmethylphenylalanine and O-malonyltyrosine as pTyr mimetics for the design of STAT3 dimerization inhibitors” (Bioorg Med Chem Lett, 2007)
Starred links: 1 amine or outer side, 2 acyl side, 3 side chain; linkers in the order of their positions; H or OH if unused. Non-standard residues stand in square brackets, D forms with d. Residues, ends and D or L forms follow the SMILES beside them. Phe(4-tetrazol-5-yl) = N[C@@H](Cc1ccc(-c2nnn[nH]2)cc1)C(=O)O; X1 = O=C([C@H](Cc1ccc(Cc2nn[nH]n2)cc1)N[*:1])[*:2]

Biological target: Signal transducer and activator of transcription 3 (Homo sapiens, UniProt P40763)
Assay: Inhibition of STAT3 dimer DNA binding activity by ELISA after 30 mins

Sequence of Signal transducer and activator of transcription 3 (P40763 whole entry): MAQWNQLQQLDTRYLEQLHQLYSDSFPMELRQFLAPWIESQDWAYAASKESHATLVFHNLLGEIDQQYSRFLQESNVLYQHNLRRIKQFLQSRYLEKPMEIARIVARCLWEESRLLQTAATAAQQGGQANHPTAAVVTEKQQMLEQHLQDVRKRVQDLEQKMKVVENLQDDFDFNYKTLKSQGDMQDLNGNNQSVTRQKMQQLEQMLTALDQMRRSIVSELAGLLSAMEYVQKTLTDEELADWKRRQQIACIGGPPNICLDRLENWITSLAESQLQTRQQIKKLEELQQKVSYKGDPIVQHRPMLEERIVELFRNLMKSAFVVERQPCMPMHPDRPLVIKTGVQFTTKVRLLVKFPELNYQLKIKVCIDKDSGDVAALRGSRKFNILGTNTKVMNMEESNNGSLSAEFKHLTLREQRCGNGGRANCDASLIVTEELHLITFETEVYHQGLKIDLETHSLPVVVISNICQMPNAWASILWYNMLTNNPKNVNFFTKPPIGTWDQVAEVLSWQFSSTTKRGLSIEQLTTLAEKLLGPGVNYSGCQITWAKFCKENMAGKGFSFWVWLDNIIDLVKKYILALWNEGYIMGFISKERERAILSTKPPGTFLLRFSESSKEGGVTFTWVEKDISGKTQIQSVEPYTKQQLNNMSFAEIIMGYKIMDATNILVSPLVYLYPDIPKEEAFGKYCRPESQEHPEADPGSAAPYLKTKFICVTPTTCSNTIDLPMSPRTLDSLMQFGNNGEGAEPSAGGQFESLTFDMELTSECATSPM

| SMILES | IC50 [nM] |
| --- | --- |
| CC(=O)N[C@@H](Cc1ccc(-c2nnn[nH]2)cc1)C(=O)N[C@@H](CC(C)C)C(=O)N1CCC[C@H]1C(=O)N[C@@H](CCC(N)=O)C(=O)N[C@H](C(=O)N[C@H](C(=O)O)C(C)C)[C@@H](C)O (Ac-[Phe(4-tetrazol-5-yl)]LPQTV-OH) | > 800 |
| CC(=O)N[C@@H](Cc1ccc(Cc2nn[nH]n2)cc1)C(=O)N[C@@H](CC(C)C)C(=O)N1CCC[C@H]1C(=O)N[C@@H](CCC(N)=O)C(=O)N[C@H](C(=O)N[C@H](C(=O)O)C(C)C)[C@@H](C)O (Ac-[X1]LPQTV-OH) | > 1000 |
